Experimental data taken from patent US4421912A, “Cephalosporin derivatives” (Takeda Chemical Industries, Ltd., priority 1973, dated 1983).
In brackets after ≈: the same amount, converted by molar mass. Like-named read-outs stand apart in the source and are kept apart here.

Assays:
P. vulgaris IFO 3988 = test: Antibacterial spectra, agar dilution method; assay type: cell-based; settings: Proteus vulgaris
Excerpt: (§1) |(mcg./ml., agar dilution method)

E. coli T-7 = test: Antibacterial spectra, agar dilution method; assay type: cell-based; settings: Escherichia coli
Excerpt: as §1

E. coli NIHJ JC-2 = test: Antibacterial spectra, agar dilution method; assay type: cell-based; settings: Escherichia coli
Excerpt: (§2) (mcg/ml., agar dilution method)
as §2
(§3) (mcg/ml, agar dilution method)
(§4) (mcg./ml., agar dilution method)

E. coli 0-111 = test: Antibacterial spectra, agar dilution method; assay type: cell-based
Excerpt: as §2, §2, §3, §4

S. aureus 209P = test: Antibacterial spectra, agar dilution method; assay type: cell-based; settings: Staphylococcus aureus
Excerpt: as §2, §2, §3, §4

S. aureus 1840 = test: Antibacterial spectra, agar dilution method; assay type: cell-based
Excerpt: as §2, §2, §3, §4

Escherichia coli 0111 = test: Protective Effect on Infected Mice; assay type: in vivo; settings: Escherichia coli, 0111, sc, 168 h, male ICR/SLC mice, i.p. E. coli 0111, single subcutaneous dose immediately after challenge, 7 days
Excerpt: Protective Effect (ED50 * , mg/kg) on Infected Mice
*Test animals: male mice (ICR/SLC) 5 mice per group per single dose
Infection: intraperitoneally with Escherichia coli 0111
Administration: a single subcutaneous dose immediately after challenge
Observation period: 7 days
*Test animals: male mice (ICR/SLC) 5 mice per group single dose

K. pneumoniae DT = test: Antibacterial spectra, agar dilution method; assay type: cell-based; settings: Klebsiella pneumoniae
P. morganii Eb53 = test: Antibacterial spectra, agar dilution method; assay type: cell-based; settings: for MIC: Morganella morganii
Excerpt: as §3, §4

P. vulgaris Eb-58 = test: Antibacterial spectra, agar dilution method; assay type: cell-based; settings: Proteus vulgaris, EB58, tables in Examples 13 and 16
Excerpt: as §2, §3

P. vulgaris Eb-57 = test: Antibacterial spectra, agar dilution method; assay type: cell-based; settings: Proteus vulgaris, EB57; P. vulgaris Eb-57; agar dilution method; table in Example 10; read-out: Antibacterial spectra
Excerpt: |(mcg/ml., agar dilution method)

[1] = IFO3988, P. vulgaris IFO 3988, agar dilution method, Table 11, read-out: Antibacterial spectra
[2] = NIHJJC2, read-out: Antibacterial spectra, E. coli NIHJ JC-2, Table 11
[3] = Escherichia coli, 0111, E. coli 0-111, Table 11
[4] = 209P, read-out: Antibacterial spectra, S. aureus 209P, Table 11
[5] = Staphylococcus aureus, S. aureus 1840, Table 11, read-out: Antibacterial spectra
[6] = EB53, read-out: Antibacterial spectra
[7] = Escherichia coli, 0111, E. coli 0-111, tables in the Examples
[8] = Staphylococcus aureus, 1840, read-out: Antibacterial spectra, S. aureus 1840, tables in the Examples
[9] = T7, E. coli T-7, agar dilution method, Table 11, read-out: Antibacterial spectra
[10] = Staphylococcus aureus, 1840, read-out: Antibacterial spectra, S. aureus 1840, Table 11
[11] = Table 12, read-out: Protective Effect (ED50) on Infected Mice
[12] = P. morganii Eb53, agar dilution method, Table 11, read-out: Antibacterial spectra

| SMILES | MIC (P. vulgaris IFO 3988; [1]) [µg/mL] | MIC (E. coli NIHJ JC-2; [2]) [µg/mL] | MIC (E. coli 0-111; [3]) [µg/mL] | MIC (S. aureus 209P; [4]) [µg/mL] | ED50 (Escherichia coli 0111; Table 13, read-out: ED50) [mg/kg] | MIC (K. pneumoniae DT; Table 11) [µg/mL] | MIC (P. morganii Eb53; [6]) [µg/mL] | ED50 (Escherichia coli 0111; Table 14, read-out: ED50) [mg/kg] | MIC (E. coli T-7; [9]) [µg/mL] | MIC (S. aureus 1840; [10]) [µg/mL] | ED50 (Escherichia coli 0111; [11]) [mg/kg] | MIC (P. morganii Eb53; [12]) [µg/mL] | also measured |
| --- | --- | --- | --- | --- | --- | --- | --- | --- | --- | --- | --- | --- | --- |
| Nc1nc(CC(=O)NC2C(=O)N3C(C(=O)O)=C(CSc4nnc(NCCO)s4)CSC23)cs1 (stereo not drawn) [Compound 17] | 0.39 (≈ 0.736 µM) | 0.39 (≈ 0.736 µM) | ≤ 0.2 | 0.39 (≈ 0.736 µM) | < 0.625 | ≤ 0.2 | 0.78 (≈ 1.47 µM) |  |  |  |  |  | MIC (E. coli T-7; T7, read-out: Antibacterial spectra): 12.5 µg/mL (≈ 23.6 µM); MIC (S. aureus 1840; [5]): 3.13 µg/mL (≈ 5.91 µM) |
| Nc1nc(CC(=O)NC2C(=O)N3C(C(=O)O)=C(CSc4nncs4)CSC23)cs1 (stereo not drawn) [Example 13, sodium 7-[2-(2-aminothiazol-4-yl)-acetamido]-3-(1,3,4-thiadiazol-2-yl)thiomethyl-3-cephem-4-carboxylate] |  |  |  |  |  |  |  | 2.38 |  |  |  |  | MIC (E. coli 0-111; [7]): < 0.78 µg/mL; MIC (S. aureus 209P; 209P, read-out: Antibacterial spectra, S. aureus 209P, tables in the Examples): < 0.78 µg/mL; MIC (S. aureus 1840; [8]): < 0.78 µg/mL; MIC (K. pneumoniae DT; tables in the Examples): < 0.78 µg/mL; MIC (P. vulgaris Eb-58): < 0.78 µg/mL |
| O=C(Cc1cccs1)N[C@@H]1C(=O)N2C(C(=O)[O-])=C(C[n+]3ccccc3)CS[C@H]12 [Cephaloridine, reference compound] | 6.25 (≈ 15 µM) | 3.13 (≈ 7.53 µM) | 1.56 (≈ 3.75 µM) | ≤ 0.2 | 1.94 | 1.56 (≈ 3.75 µM) |  | 3.57 | > 100 | 0.39 (≈ 0.939 µM) | 2.81 | > 100 | MIC (P. vulgaris Eb-57): > 100 µg/mL; MIC (E. coli NIHJ JC-2; NIHJJC2, read-out: Antibacterial spectra, E. coli NIHJ JC-2, tables in the Examples): 6.25 µg/mL (≈ 15 µM); MIC (E. coli 0-111; [7]): 3.12 µg/mL (≈ 7.52 µM); MIC (S. aureus 209P; S. aureus 209P, tables in the Examples, read-out: Antibacterial spectra): 0.05 µg/mL (≈ 0.12 µM); MIC (S. aureus 1840; [8]): 0.39 µg/mL (≈ 0.939 µM); MIC (K. pneumoniae DT; tables in the Examples): 3.12 µg/mL (≈ 7.52 µM); MIC (P. vulgaris Eb-58): 12.5 µg/mL (≈ 30.1 µM); Antibacterial spectra (P. morganii Eb53; P. morganii Eb53, agar dilution method, table in Example 16): > 100 µg/mL |
| Nc1nc(CC(=O)NC2C(=O)N3C(C(=O)O)=C(CSc4nnc(CC(=O)O)s4)CSC23)cs1 (stereo not drawn) [Compound 19, disodium 7-[2-(2-aminothiazol-4-yl)acetamido]-3-(2-carboxymethyl-1,3,4-thiadiazol-5-yl)thiomethyl-3-cephem-4-carboxylate] | ≤ 0.2 | 0.78 | ≤ 0.2 | 0.78 |  | ≤ 0.2 | 0.78 |  | 25 |  | < 0.625 |  | MIC (S. aureus 1840; [5]): 3.13 µg/mL |
| Nc1nc(CC(=O)NC2C(=O)N3C(C(=O)O)=C(CSc4nnc(SCC(=O)O)s4)CSC23)cs1 (stereo not drawn) [Compound 15] | ≤ 0.2 | 0.78 (≈ 1.39 µM) | ≤ 0.2 | 0.78 (≈ 1.39 µM) | < 0.625 | ≤ 0.2 |  |  | 25 (≈ 44.6 µM) | 1.56 (≈ 2.78 µM) |  | 3.13 (≈ 5.58 µM) |  |
| CN(C)CCSc1nnc(SCC2=C(C(=O)O)N3C(=O)C(NC(=O)Cc4csc(N)n4)C3SC2)s1 (stereo not drawn) [Compound 9] |  |  | 0.39 (≈ 0.68 µM) | ≤ 0.2 |  | ≤ 0.2 | < 0.2 |  | 50 (≈ 87.1 µM) | 0.78 (≈ 1.36 µM) | 0.812 |  | MIC (P. vulgaris IFO 3988; IFO3988, read-out: Antibacterial spectra): 6.25 µg/mL (≈ 10.9 µM); MIC (E. coli NIHJ JC-2; NIHJJC2, E. coli NIHJ JC-2, Table 11, read-out: Antibacterial spectra): 1.56 µg/mL (≈ 2.72 µM) |
| Cn1cnnc1SCC1=C(C(=O)O)N2C(=O)C(NC(=O)Cc3csc(N)n3)C2SC1 (stereo not drawn) [Compound 39] |  | 0.2 (≈ 0.428 µM) | < 0.05 | 0.78 (≈ 1.67 µM) |  | 0.1 (≈ 0.214 µM) |  | 0.73 | 25 (≈ 53.5 µM) | 1.56 (≈ 3.34 µM) |  | 25 (≈ 53.5 µM) |  |
